# pEC50: −log10 of the molar value.
# Test system: NQO1 specific enzyme activity in BEAS-2B cells (marker for NRF2 activation)
# Experiment: BEAS-2B NQO1 MTT Assay
# Assay type: cell-based
# Conditions: Homo sapiens, BEAS-2B, 48 h, NQO1 specific activity induction, 48 hours with compound
# Excerpt: NAD(P)H:quinone oxidoreductase 1 (NQO1), also called DT diaphorase, is a homodimeric FAD-containing enzyme that catalyzes obligatory NAD(P)H-dependent two-electron reductions of quinones and protects cells against the toxic and neoplastic effects of free radicals and reactive oxygen species arising from one-electron reductions. The transcription of NQO1 is finely regulated by NRF2, and thus NQO1 activity is a good marker for NRF2 activation. On day one, frozen BEAS-2B cells (ATCC) were thawed in a water bath, counted, and re-suspended at a concentration of 250,000 cells/mL. Fifty microliters of cells were plated in 384 well black clear-bottomed plates. Plates were incubated at 37° C., 5% CO2 overnight. On day two, plates were centrifuged and 50 nL of compound or controls were added to the cells. Plates were then incubated at 37° C., 5% CO2 for 48 hours. On day four, medium was aspirated from the plate and crude cell lysates were made by adding 13 uL of 1× Cell Signaling Technologies lysis buffer with 1 Complete, Mini, EDTA-free Protease Inhibitor Tablet (Roche) for each 10 mL of lysis buffer. After lysis plates were incubated for 20 minutes at room temperature. Two microliters of lysate were removed for use in Cell Titer Glo assay (Promega) and MTT cocktail was prepared (Prochaska et. al. 1998) for measurement of NQO1 activity. Fifty microliters of MTT cocktail is added to each well, plate is centrifuged, and analyzed on an Envision plate reader (Perkin Elmer) using Absorbance 570 nm label for 30 minutes. Product formation was measured kinetically and the pEC50 of NQO1 specific activity induction was calculated by plotting the change in absorbance (Delta OD/min) versus the log of compound concentration followed by 3-parameter fitting.
# pEC50 is the negative log of the EC50.
# EC50s<1 nM (+++++), EC50s 1 nM-10 nM (++++), EC50s 10 nM-100 nM (+++), EC50s 100 nM-1 uM (++), EC50s 1 uM-10 uM (+), EC50s>10 uM (−), or were not determined (ND).
row,SMILES,pEC50
1,"CC[C@@H]1CN(Cc2cc([C@@H](CC(=O)O)c3ccc4c(nnn4CC)c3C)sc2Cl)S(=O)(=O)c2cnccc2O1 [Example 1, (S)-3-(5-Chloro-4-(((R)-4-ethyl-1,1-dioxido-3,4-dihydro-2H-pyrido[4,3-b][1,4,5]oxathiazepin-2-yl)methyl)thiophen-2-yl)-3-(1-ethyl-4-methyl-1H-benzo[d][1,2,3]triazol-5-yl)propanoic acid]",6.00 to 7.00
2,"CC[C@H]1Cc2ccccc2S(=O)(=O)N(Cc2nc([C@@H](c3ccc4c(nnn4CC)c3C)C(C)(C)C(=O)Nc3cccnc3)sc2C)C1 [Example 42, (S)-3-(4-(((S)-4-Ethyl-1,1-dioxido-4,5-dihydrobenzo[f][1,2]thiazepin-2(3H)-yl)methyl)-5-methylthiazol-2-yl)-3-(1-ethyl-4-methyl-1H-benzo[d][1,2,3]triazol-5-yl)-2,2-dimethyl-N-(pyridin-3-yl)propanamide]",7.00 to 8.00
3,"CC[C@@H]1CN(Cc2nc([C@@H](c3ccc4c(nnn4CC)c3C)C(C)(C)C(=O)Nc3cccnc3)sc2C)S(=O)(=O)c2cnccc2O1 [Example 28, (S)-3-(4-(((R)-4-Ethyl-1,1-dioxido-3,4-dihydro-2H-pyrido[4,3-b][1,4,5]oxathiazepin-2-yl)methyl)-5-methylthiazol-2-yl)-3-(1-ethyl-4-methyl-1H-benzo[d][1,2,3]triazol-5-yl)-2,2-dimethyl-N-(pyridin-3-yl)propanamide]",6.00 to 7.00
4,"CC[C@@H]1CN(Cc2cc([C@H](c3ccc4c(nnn4CC)c3C)C(C)(C)C(=O)O)sc2C)S(=O)(=O)c2ccccc2O1 [Example 11, (R)-3-(4-(((R)-4-Ethyl-1,1-dioxido-3,4-dihydro-2H-benzo[b][1,4,5]oxathiazepin-2-yl)methyl)-5-methylthiophen-2-yl)-3-(1-ethyl-4-methyl-1H-benzo[d][1,2,3]triazol-5-yl)-2,2-dimethylpropanoic Acid]",7.00 to 8.00
5,"CCn1nnc2c(C)c([C@H](c3cc(CN4CCC[C@H](n5cccn5)C4)c(C)s3)C(C)(C)C(=O)O)ccc21 [Example 32, (S)-3-(4-(((S)-3-(1H-Pyrazol-1-yl)piperidin-1-yl)methyl)-5-methylthiophen-2-yl)-3-(1-ethyl-4-methyl-1H-benzo[d][1,2,3]triazol-5-yl)-2,2-dimethylpropanoic acid]",6.00 to 7.00
6,"CCn1cc(CC[C@H](c2cc(CN3C[C@@H](C)Cc4ncccc4S3(=O)=O)c(C)s2)C(C)(C)C(=O)O)nn1 [Example 62, (S)-5-(1-Ethyl-1H-1,2,3-triazol-4-yl)-2,2-dimethyl-3-(5-methyl-4-(((S)-4-methyl-1,1-dioxido-4,5-dihydropyrido[2,3-f][1,2]thiazepin-2(3H)-yl)methyl)thiophen-2-yl)pentanoic Acid]",8.00 to 9.00
7,"CC[C@@H]1CN(Cc2cc([C@H](CC(=O)O)c3ccc4c(nnn4CC)c3C)sc2C)S(=O)(=O)c2cnccc2O1 [Example 47, (R)-3-(4-(((R)-4-Ethyl-1,1-dioxido-3,4-dihydro-2H-pyrido[4,3-b][1,4,5]oxathiazepin-2-yl)methyl)-5-methylthiophen-2-yl)-3-(1-ethyl-4-methyl-1H-benzo[d][1,2,3]triazol-5-yl)propanoic Acid]",7.00 to 8.00
8,"CCn1nnc2c(C)c([C@H](c3cc(CN4C[C@@H](C)Cc5ccccc5S4(=O)=O)c(C)s3)C(C)(C)C(=O)O)ccc21 [Example 18, (S)-3-(1-Ethyl-4-methyl-1H-benzo[d][1,2,3]triazol-5-yl)-2,2-dimethyl-3-(5-methyl-4-(((S)-4-methyl-1,1-dioxido-4,5-dihydrobenzo[f][1,2]thiazepin-2(3H)-yl)methyl)thiophen-2-yl)propanoic Acid]",> 9.00
9,"CC[C@@H]1CN(Cc2cc([C@@H](c3ccc4c(nnn4CC)c3C)C(C)(C)C(=O)O)sc2C)S(=O)(=O)c2cccnc2O1 [Example 7, (S)-3-(4-(((R)-4-Ethyl-1,1-dioxido-3,4-dihydro-2H-pyrido[2,3-b][1,4,5]oxathiazepin-2-yl)methyl)-5-methylthiophen-2-yl)-3-(1-ethyl-4-methyl-1H-benzo[d][1,2,3]triazol-5-yl)-2,2-dimethylpropanoic acid]",> 9.00
10,"CC[C@@H]1CN(Cc2cc([C@@H](CCc3cn(CC)nn3)C(C)(C)C(=O)O)sc2C)S(=O)(=O)c2ccccc2O1 [Example 63, (S)-3-(4-(((R)-4-Ethyl-1,1-dioxido-3,4-dihydro-2H-benzo[b][1,4,5]oxathiazepin-2-yl)methyl)-5-methylthiophen-2-yl)-5-(1-ethyl-1H-1,2,3-triazol-4-yl)-2,2-dimethylpentanoic Acid]",8.00 to 9.00
11,"CC[C@@H]1CN(Cc2cc([C@H](CC(=O)O)c3ccc4c(nnn4CC)c3C)sc2Cl)S(=O)(=O)c2ccccc2O1 [Example 5, (R)-3-(5-Chloro-4-(((R)-4-ethyl-1,1-dioxido-3,4-dihydro-2H-benzo[b][1,4,5]oxathiazepin-2-yl)methyl)thiophen-2-yl)-3-(1-ethyl-4-methyl-1H-benzo[d][1,2,3]triazol-5-yl)propanoic acid]",7.00 to 8.00
12,"CC[C@@H]1CN(Cc2cc([C@H](c3ccc4c(nnn4CC)c3C)C(C)(C)C(=O)O)sc2Cl)S(=O)(=O)c2cnccc2O1 [Example 36, (R)-3-(5-Chloro-4-(((R)-4-ethyl-1,1-dioxido-3,4-dihydro-2H-pyrido[4,3-b][1,4,5]oxathiazepin-2-yl)methyl)thiophen-2-yl)-3-(1-ethyl-4-methyl-1H-benzo[d][1,2,3]triazol-5-yl)-2,2-dimethylpropanoic Acid]",6.00 to 7.00
13,"CCn1nnc2c(C)c([C@H](c3cc(CN4C[C@@H](C)Cc5ccc(C(F)(F)F)cc5S4(=O)=O)n(C)n3)C(C)(C)C(=O)O)ccc21 [Example 50, (S)-3-(1-Ethyl-4-methyl-1H-benzo[d][1,2,3]triazol-5-yl)-2,2-dimethyl-3-(1-methyl-5-(((S)-4-methyl-1,1-dioxido-8-(trifluoromethyl)-4,5-dihydrobenzo[f][1,2]thiazepin-2(3H)-yl)methyl)-1H-pyrazol-3-yl)propanoic Acid]",8.00 to 9.00
14,"CC[C@@H]1CN(Cc2cc([C@H](CC(=O)O)c3ccc4c(nnn4CC)c3C)sc2Cl)S(=O)(=O)c2cnccc2O1 [Example 22, (R)-3-(5-chloro-4-(((R)-4-ethyl-1,1-dioxido-3,4-dihydro-2H-pyrido[4,3-b][1,4,5]oxathiazepin-2-yl)methyl)thiophen-2-yl)-3-(1-ethyl-4-methyl-1H-benzo[d][1,2,3]triazol-5-yl)propanoic Acid]",7.00 to 8.00
15,"CCn1nnc2c(C)c([C@H](c3nc(CN4C[C@@H](C)Cc5cc(C(F)(F)F)ccc5S4(=O)=O)c(C)s3)C(C)(C)C(=O)Nc3cccnc3)ccc21 [Example 45, (S)-3-(1-Ethyl-4-methyl-1H-benzo[d][1,2,3]triazol-5-yl)-2,2-dimethyl-3-(5-methyl-4-(((S)-4-methyl-1,1-dioxido-7-(trifluoromethyl)-4,5-dihydrobenzo[f][1,2]thiazepin-2(3H)-yl)methyl)thiazol-2-yl)-N-(pyridin-3-yl)propanamide]",7.00 to 8.00
16,"CC[C@@H]1CN(Cc2cc([C@@H](CC(=O)O)c3ccc4c(nnn4CC)c3C)sc2Cl)S(=O)(=O)c2cccnc2O1 [Example 2, (S)-3-(5-Chloro-4-(((R)-4-ethyl-1,1-dioxido-3,4-dihydro-2H-pyrido[2,3-b][1,4,5]oxathiazepin-2-yl)methyl)thiophen-2-yl)-3-(1-ethyl-4-methyl-1H-benzo[d][1,2,3]triazol-5-yl)propanoic acid]",5.00 to 6.00
17,"CCn1nnc2c(C)c([C@H](c3cc(CN4CC(=O)N(C)CC(C)(C)C4)c(C)s3)C(C)(C)C(=O)O)ccc21 [Example 15, (S)-3-(1-Ethyl-4-methyl-1H-benzo[d][1,2,3]triazol-5-yl)-2,2-dimethyl-3-(5-methyl-4-((4,6,6-trimethyl-3-oxo-1,4-diazepan-1-yl)methyl)thiophen-2-yl)propanoic Acid]",8.00 to 9.00
18,"CC[C@@H]1CN(Cc2nc([C@@H](c3ccc4c(nnn4CC)c3C)C(C)(C)C(=O)Nc3cccnc3)sc2C)S(=O)(=O)c2cccnc2O1 [Example 25, (S)-3-(4-(((R)-4-Ethyl-1,1-dioxido-3,4-dihydro-2H-pyrido[2,3-b][1,4,5]oxathiazepin-2-yl)methyl)-5-methylthiazol-2-yl)-3-(1-ethyl-4-methyl-1H-benzo[d][1,2,3]triazol-5-yl)-2,2-dimethyl-N-(pyridin-3-yl)propanamide]",6.00 to 7.00

# Same assay, conditions: NQO1 specific activity induction, 48 hours with compound
row,SMILES,pEC50
1,"CC[C@@H]1CN(Cc2nc(C(c3ccc4c(nnn4CC)c3C)C(C)(C)C(=O)O)sc2C)S(=O)(=O)c2ccccc2O1 (single isomer, unassigned; isomer 1) [Example 13, (R or S)-3-(4-(((R)-4-Ethyl-1,1-dioxido-3,4-dihydro-2H-benzo[b][1,4,5]oxathiazepin-2-yl)methyl)-5-methylthiazol-2-yl)-3-(1-ethyl-4-methyl-1H-benzo[d][1,2,3]triazol-5-yl)-2,2-dimethylpropanoic Acid Isomer 1]",8.00 to 9.00

# — US11117905B2, “Bisaryl heterocycles as NRF2 activators” (GLAXOSMITHKLINE INTELLECTUAL PROPERTY DEVELOPMENT LIMITED, priority 2016, dated 2021)
